Data published in ChEMBL document CHEMBL1130363, “Design and synthesis of hapten to induce phospholipase A2-like catalytic antibody” (Bioorg Med Chem Lett, 1997).

Target: T1, Lysosomal phospholipase A and acyltransferase (Homo sapiens, UniProt Q8NCC3)
T1 sequence (Q8NCC3 whole entry): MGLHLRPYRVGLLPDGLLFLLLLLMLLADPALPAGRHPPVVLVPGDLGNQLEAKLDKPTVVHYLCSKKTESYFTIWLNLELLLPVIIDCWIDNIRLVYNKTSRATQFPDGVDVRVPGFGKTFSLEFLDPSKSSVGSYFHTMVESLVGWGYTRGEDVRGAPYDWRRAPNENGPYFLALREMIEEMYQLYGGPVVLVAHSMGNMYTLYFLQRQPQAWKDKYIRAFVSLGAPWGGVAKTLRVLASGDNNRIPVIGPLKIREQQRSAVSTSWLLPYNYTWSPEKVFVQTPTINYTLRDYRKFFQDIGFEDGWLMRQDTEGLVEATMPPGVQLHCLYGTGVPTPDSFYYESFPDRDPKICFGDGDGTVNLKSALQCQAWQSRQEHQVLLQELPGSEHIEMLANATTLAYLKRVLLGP
Test: Inhibitory activity against phospholipase A2 enzyme

**Q.** With CCCCCCCCCCP(=O)(O)OC(COCCCCCCCCCC(=O)OC)COP(=O)([O-])OCC[N+](C)(C)C (stereo unspecified) [ESTER OF PHOSPHOLIPID] as the compound, how does the IC50 read?
**A.** 9.75 mM
